We go through 67 compounds from ChEMBL document CHEMBL4483862, “Open-source discovery of chemical leads for next-generation chemoprotective antimalarials” (2018).

This assay has as its system Plasmodium berghei. Kind of assay: Luciferase/luciferin-expressing antifolate-resistant parasites were used to infect a culture of HepG2 cells that were pre-incubated with compounds. Infected hepatocytes emit light due to the luciferase reaction. Assay results are presented as the percent inhibition of light emission compared to control. […]. Format: functional. To be noted: sporozoite; for IC50: read-out: LUCIFERASE INFECTION ASSAY - IC50; for IC90: read-out: LUCIFERASE INFECTION ASSAY - IC90.

Usually IC50 stands for the point on the concentration scale where inhibition reaches its midpoint. In general, IC90 refers to the concentration at which the effect reaches the 90% level.

Take `CC(=O)Nc1ccc(-c2ccnc3c2CC(C(=O)Nc2cccc(C(F)(F)F)c2)O3)cc1` (centres undefined): the IC50 was 4.23 µM and the concentration for an effect of 90% (IC90) was above 7.48 µM.
With `CNc1nc2cnc(Nc3cccc(C(C)C)c3)cc2n1Cc1ccco1`, the IC50 was above 10 µM and the IC90 was above 10 µM.
In the case of `Cn1cccc1C(=O)N1CC2ON=C(c3ccc(F)cc3)C2C1` (centres undefined), the IC50 was above 10 µM and the IC90 is above 10 µM.
Consider `Cc1ccccc1CN1CCN2C=C(C(=O)Nc3ccc(OCc4ccccc4)cc3)OC2=NC1=O`, for which the IC50 is above 10 µM and the IC90 was above 10 µM.
`OCc1ccc(-c2cnc3ccc(-c4ccoc4)nn23)cc1`: the IC50 was 4.97 µM and the IC90 was above 10 µM.
For `CC(C)(C(=O)NCc1ccccc1Br)n1cc(-c2ccc(OCCN3CCCC3)cc2)cn1`, in that order: above 10 µM and above 10 µM.
With `Cc1ccccc1CN1CCN2C(C(=O)NCc3cccc(Cl)c3)=COC2=NC1=O`, the IC50 was above 10 µM and the IC90 was above 10 µM.
For `CNc1nc2cnc(Nc3ccccc3Cl)cc2n1CC1CC1`, the concentration for half-maximal inhibition (IC50) was above 10 µM and the 90% effect concentration (IC90) is above 10 µM.
For the compound `COc1ccc(CNc2nc3cnc(Nc4ccc(F)c(Cl)c4)cc3n2C)cc1OC`, the IC50 is above 10 µM and the IC90 was above 10 µM.
Consider `CNc1nc2cnc(Nc3cccc(C)c3)cc2n1-c1cc(OC)c(OC)c(OC)c1`, for which the half-inhibitory concentration (IC50) is above 10 µM and the IC90 was above 10 µM.
For the compound `CNc1nc2cnc(Nc3cc(OC)cc(C(F)(F)F)c3)cc2n1Cc1ccco1`, the IC50 is above 10 µM and the IC90 is above 10 µM.
Turning to `Cn1c(NCc2ccccc2F)nc2cnc(Nc3cccc(OC(F)(F)F)c3)cc21`, the IC50 was above 10 µM and the IC90 was above 10 µM.
Consider `CC(=O)Oc1cccc(C(=O)N2CC3ON=C(c4c(F)cccc4Cl)C3C2)c1C` (centres undefined), for which the half-inhibitory concentration (IC50) was above 10 µM and the IC90 is above 10 µM.
Turning to `OCc1cccc(-c2cnc3ccc(-c4cccc(F)c4)nn23)c1`, the IC50 is 3.42 µM and the IC90 was found to be 4.21 µM.
On the same counts, the results for `COc1cc(Nc2cc3c(cn2)nc(NCc2ccccc2)n3C)cc(C(F)(F)F)c1` are above 10 µM and above 10 µM.
For `COc1cc(NC(=O)C(C)(C)n2cc(-c3cccnc3)cn2)cc(OC)c1`, in that order: above 10 µM and above 10 µM.
On the same counts, the results for `CNc1nc2cnc(Nc3cc(C(F)(F)F)ccc3F)cc2n1Cc1ccccc1` are above 10 µM and above 10 µM.
As to `CNc1nc2cnc(Nc3cccc(C(C)=O)c3)cc2n1-c1cccc(F)c1`, the IC50 is above 10 µM and the IC90 was above 10 µM.
Consider `COc1ccc(OC)c(S(=O)(=O)N2[C@@H]3CC[C@@H](C3)[C@H]2c2nc3cccc(OCc4ccc(F)cc4)c3[nH]2)c1`, for which the IC50 is above 10 µM and the IC90 is above 10 µM.
As for `CNc1nc2cnc(Nc3ccccc3)cc2n1-c1cccc(C(F)(F)F)c1`, the IC50 was above 10 µM and the IC90 was above 10 µM.
Consider `COc1cc(-c2cnc3ccc(Cc4ccc(F)cc4)nn23)cc(OC)c1OC`, for which the IC50 amounted to 6.26 µM and the IC90 is above 10 µM.
For `COc1cccc(NC(=O)c2cccc(C3(CNCc4ccccc4F)CC3)c2)c1`, in that order: above 10 µM and above 10 µM.
On the same counts, the results for `COc1ccc(NC(=O)c2cccc(C3(CNc4ccccc4)CC3)c2)cn1` are above 10 µM and above 10 µM.
For `COc1cccc(CN2CCN3C=C(C(=O)Nc4ccc(Oc5ccccc5)cc4)OC3=NC2=O)c1`, in that order: above 10 µM and above 10 µM.
Consider `Cc1ccc(NC(=O)N2[C@@H]3CC[C@@H](C3)[C@H]2c2nc3cccc(OCc4ccccc4)c3[nH]2)cc1`, for which the IC50 was above 10 µM and the IC90 was above 10 µM.
With `COc1ccc(CNc2nc3cnc(Nc4ccc(OC(F)(F)F)cc4)cc3n2C)cc1OC`, the IC50 was above 10 µM and the IC90 is above 10 µM.
`c1ccc(Oc2cccc(-c3ccc4ncc(-c5ccoc5)n4n3)c2)cc1`: the IC50 is above 10 µM and the 90% effect concentration (IC90) was above 10 µM.
Regarding `Nc1cccc(-c2ccc3ncc(-c4cccc(C(F)(F)F)c4)n3n2)c1`, the IC50 was 1.48 µM and the IC90 came to 2.09 µM.
For the compound `O=C(Nc1cccnc1)C1=COC2=NC(=O)N(Cc3ccccc3C(F)(F)F)CCN12`, the concentration for half-maximal inhibition (IC50) was above 10 µM and the IC90 was above 10 µM.
Consider `CS(=O)(=O)c1ccc(-c2ccc3ncc(-c4cccc(C(F)(F)F)c4)n3n2)cc1`, for which the IC50 worked out at 2.78 µM and the 90% effect concentration (IC90) is above 10 µM.
With `CNc1nc2cnc(Nc3ccc(OC)cc3C)cc2n1-c1cc(OC)c(OC)c(OC)c1`, the IC50 was above 10 µM and the IC90 is above 10 µM.
On to `CNc1nc2cnc(Nc3ccc(F)c(Cl)c3)cc2n1-c1cccc(C(F)(F)F)c1`, for which the IC50 was above 10 µM and the IC90 was above 10 µM.
Turning to `CNc1nc2cnc(Nc3cccc(N(C)C)c3)cc2n1-c1cc(OC)c(OC)c(OC)c1`, the IC50 is above 10 µM and the 90% effect concentration (IC90) was above 10 µM.
`FC(F)(F)c1cccc(-c2ccc3ncc(-c4ccc5c(c4)OCO5)n3n2)c1`: the IC50 is above 10 µM and the IC90 is above 10 µM.
Take `Cc1ccccc1CN1CCN2C=C(C(=O)Nc3ccc(Oc4ccccc4)cc3)OC2=NC1=O`: the IC50 is above 10 µM and the IC90 was above 10 µM.
`CNc1nc2cnc(Nc3cccc(N(C)C)c3)cc2n1-c1cccc(C(F)(F)F)c1`: the IC50 was above 10 µM and the IC90 is above 10 µM.
Consider `O=C(NCC1CC1)c1cccc(C2(CNCCCN3CCOCC3)CC2)c1`, for which the IC50 is above 10 µM and the concentration for an effect of 90% (IC90) was above 10 µM.
Consider `CC(=O)c1cccc(-c2ccc3ncc(-c4ccoc4)n3n2)c1`, for which the IC50 was above 10 µM and the IC90 is above 10 µM.
`COc1cc(Nc2cc3c(cn2)cc(-c2cnn(C)c2)n3Cc2ccccc2)cc(OC)c1OC`: the IC50 was 3.03 µM and the IC90 was found to be 3.72 µM.
For `CC(C)c1ccc(NC(=O)C2=CN3CCN(Cc4ccc(F)cc4)C(=O)N=C3O2)cc1`, in that order: above 10 µM and above 10 µM.
With `COc1ccccc1-c1ccc2ncc(-c3ccc(CO)cc3)n2n1`, the IC50 turned out to be 7.5 µM and the IC90 was above 10 µM.
Consider `CNC(=O)c1cnc(N2CCN(Cc3ccccc3C#N)C2=O)s1`, for which the half-inhibitory concentration (IC50) is above 10 µM and the concentration for an effect of 90% (IC90) was above 10 µM.
Consider `COc1ccc(CNC(=O)c2ccc(C3(CNc4cccc(OC)c4)CC3)cc2)cc1`, for which the IC50 was above 10 µM and the IC90 was above 10 µM.
In the case of `CNc1nc2cnc(Nc3ccc(Oc4ccccc4)cc3)cc2n1C`, the half-maximal inhibitory concentration (IC50) is above 10 µM and the IC90 is above 10 µM.
As for `COc1cc(CNc2nccc3nc(-c4ccccc4Cl)[nH]c23)cc(OC)c1OC`, the IC50 was 8.57 µM and the IC90 is above 10 µM.
For `OCc1ccc(-c2cnc3ccc(-c4cccc(C(F)(F)F)c4)nn23)cc1`, in that order: above 10 µM and above 10 µM.
For `CC(=O)Nc1cccc(-c2ccc3ncc(-c4ccc(CO)cc4)n3n2)c1`, in that order: 2.73 µM and 8.06 µM.
For `CC(C)(C(=O)Nc1ccon1)n1cc(-c2ccc(OCCN3CCCC3)cc2)cn1`, in that order: above 10 µM and above 10 µM.
Regarding `O=C(NCc1cccc(Cl)c1)C1=COC2=NC(=O)N(Cc3cccc(Cl)c3)CCN12`, the IC50 was above 10 µM and the IC90 is above 10 µM.
In the case of `O=C(NCc1ccccc1)c1cccc(C2(CNc3cccc(OC(F)(F)F)c3)CC2)c1`, the IC50 is above 10 µM and the IC90 is above 10 µM.
Regarding `FC(F)(F)c1cccc(-c2cnc3ccc(-c4cccs4)nn23)c1`, the IC50 is above 10 µM and the IC90 is above 10 µM.
As for `Cc1occc1NC(=O)N1[C@@H]2CC[C@@H](C2)[C@H]1c1nc2cccc(OCc3ccc(F)cc3)c2[nH]1`, the concentration for half-maximal inhibition (IC50) is above 10 µM and the IC90 was above 10 µM.
Turning to `COc1cc(Nc2nccc3nc(-c4ccc5c(c4)OCCO5)[nH]c23)cc(OC)c1OC`, the IC50 came to 0.494 µM and the IC90 came to 1.67 µM.
As for `CC(C)(C)c1ccc(OCC(=O)Nc2cnn(C(C)(C)C(=O)NCc3ccccc3)c2)cc1`, the IC50 is above 10 µM and the IC90 was above 10 µM.
With `O=C(Nc1ccc(Oc2ccccc2)cc1)C1=CN2CCN(Cc3ccccc3)C(=O)N=C2O1`, the IC50 was above 10 µM and the IC90 was above 10 µM.
Turning to `O=C(NCC1CC1)c1cccc(C2(CNCc3ccc(F)c(Cl)c3)CC2)c1`, the IC50 was above 10 µM and the IC90 is above 10 µM.
With `CNc1nc2cnc(Nc3cccc(N(C)C)c3)cc2n1-c1ccccc1`, the IC50 was above 10 µM and the 90% effect concentration (IC90) is above 10 µM.
Regarding `CS(=O)(=O)c1ccc(-c2cnc3ccc(Cc4ccc(F)cc4)nn23)cc1`, the IC50 came out at 2.9 µM and the 90% effect concentration (IC90) is 3.4 µM.
Regarding `FC(F)(F)Oc1cccc(-c2ccc3ncc(-c4ccoc4)n3n2)c1`, the IC50 was above 10 µM and the IC90 was above 10 µM.
As for `N#Cc1cccc(CN2CCN3C(C(=O)Nc4ccc(-n5cccc5)cc4)=COC3=NC2=O)c1`, the IC50 was above 10 µM and the IC90 was above 10 µM.
Turning to `Cn1cc(-c2cc3cnc(Nc4ccc(C(N)=O)cc4)cc3n2Cc2ccccc2)cn1`, the IC50 is above 10 µM and the IC90 is above 10 µM.
Take `COc1cc(NC(=O)C(C)(C)n2cc(-c3ccc(OCCN4CCCC4)cc3)cn2)cc(OC)c1`: the IC50 was above 10 µM and the IC90 is above 10 µM.
For the compound `CC(C)(C(=O)NCCc1ccccc1)n1cc(-c2ccc3c(c2)OCCO3)cn1`, the IC50 is above 10 µM and the IC90 was above 10 µM.
In the case of `COCCn1cnc2cnc(Nc3cccc(F)c3)cc21`, the IC50 was above 10 µM and the IC90 was above 10 µM.
On to `Cn1c(NCc2ccccc2)nc2cnc(Nc3ccc(F)cc3)cc21`, for which the IC50 is above 10 µM and the IC90 is above 10 µM.
Take `CS(=O)(=O)c1ccc(CN2CCN3C(C(=O)Nc4cccc(C(F)(F)F)c4)=COC3=NC2=O)cc1`: the IC50 was above 10 µM and the concentration for an effect of 90% (IC90) was above 10 µM.
On to `CNc1nc2cnc(Nc3ccc(SC)cc3)cc2n1Cc1ccc(OC)c(OC)c1`, for which the IC50 was above 10 µM and the IC90 is above 10 µM.
